Results as given in publication PMC10534724, “Interaction of ALK Inhibitors with Polyspecific Organic Cation Transporters and the Impact of Substrate-Dependent Inhibition on the Prediction of Drug–Drug Interactions” (Pharmaceutics, 2023).
Read-outs that look alike come from different tables or passages of the source.

How the values were obtained:
hMATE2-K = biological target: T1, hMATE2-K (Homo sapiens, UniProt Q86VL8); assay: Inhibition of hMATE2-K-mediated substrate uptake in transfected HEK293 cells (pH 8.0); format: in vitro ADME; details: for In vivo DDI study recommendation, hMATE2-K: FDA-recommended criteria
T1 construct: expressed in transfected cells

hOCT1 [1] = biological target: T2, hOCT1 (Homo sapiens, UniProt O15245); assay: Inhibition of hOCT1-mediated substrate uptake in transfected HEK293 cells; format: in vitro ADME; details: for In vivo DDI study recommendation, hOCT1: FDA-recommended criteria
T2 construct: expressed in transfected cells
T2 sequence (O15245 1-554): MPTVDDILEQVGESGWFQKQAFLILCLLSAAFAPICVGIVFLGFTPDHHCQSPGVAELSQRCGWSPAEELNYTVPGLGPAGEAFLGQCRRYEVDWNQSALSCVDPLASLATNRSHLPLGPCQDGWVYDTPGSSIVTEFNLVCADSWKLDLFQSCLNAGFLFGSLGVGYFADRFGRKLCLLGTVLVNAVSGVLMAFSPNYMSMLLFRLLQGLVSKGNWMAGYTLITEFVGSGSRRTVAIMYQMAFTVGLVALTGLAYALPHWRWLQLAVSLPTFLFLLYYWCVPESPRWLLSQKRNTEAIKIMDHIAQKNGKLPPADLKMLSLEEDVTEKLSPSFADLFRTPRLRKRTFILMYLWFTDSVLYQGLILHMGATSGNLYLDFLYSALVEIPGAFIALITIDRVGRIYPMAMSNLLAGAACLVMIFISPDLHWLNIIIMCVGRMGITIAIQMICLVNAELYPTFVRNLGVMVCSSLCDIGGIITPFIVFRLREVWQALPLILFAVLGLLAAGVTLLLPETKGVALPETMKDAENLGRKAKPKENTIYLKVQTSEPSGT

hMATE1 = biological target: T3, hMATE1 (Homo sapiens, UniProt Q96FL8); assay: Inhibition of hMATE1-mediated substrate uptake in transfected HEK293 cells (pH 8.0); format: in vitro ADME; details: FDA-recommended criteria
T3 construct: expressed in transfected cells
T3 sequence (Q96FL8 1-570): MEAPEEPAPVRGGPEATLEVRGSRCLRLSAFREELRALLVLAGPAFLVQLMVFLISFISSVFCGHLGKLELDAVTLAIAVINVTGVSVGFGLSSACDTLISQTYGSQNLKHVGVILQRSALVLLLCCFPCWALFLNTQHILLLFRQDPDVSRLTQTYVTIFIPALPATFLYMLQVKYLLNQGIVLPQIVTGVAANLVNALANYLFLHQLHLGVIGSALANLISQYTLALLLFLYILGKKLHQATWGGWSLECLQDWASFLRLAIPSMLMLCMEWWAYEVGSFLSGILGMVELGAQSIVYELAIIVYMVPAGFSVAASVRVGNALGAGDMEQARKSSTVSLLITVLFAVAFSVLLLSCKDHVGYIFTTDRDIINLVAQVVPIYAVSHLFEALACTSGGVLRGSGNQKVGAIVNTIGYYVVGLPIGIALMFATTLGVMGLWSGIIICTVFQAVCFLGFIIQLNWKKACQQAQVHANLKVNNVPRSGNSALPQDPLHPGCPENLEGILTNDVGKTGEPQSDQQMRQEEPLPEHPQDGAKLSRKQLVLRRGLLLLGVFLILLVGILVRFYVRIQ

hOCT2 = biological target: T4, hOCT2 (Homo sapiens, UniProt O15244); assay: Inhibition of hOCT2-mediated substrate uptake in transfected HEK293 cells; format: in vitro ADME; set-up: expressed in transfected cells; details: for In vivo DDI study recommendation, hOCT2: FDA-recommended criteria
T4 sequence (O15244 1-555): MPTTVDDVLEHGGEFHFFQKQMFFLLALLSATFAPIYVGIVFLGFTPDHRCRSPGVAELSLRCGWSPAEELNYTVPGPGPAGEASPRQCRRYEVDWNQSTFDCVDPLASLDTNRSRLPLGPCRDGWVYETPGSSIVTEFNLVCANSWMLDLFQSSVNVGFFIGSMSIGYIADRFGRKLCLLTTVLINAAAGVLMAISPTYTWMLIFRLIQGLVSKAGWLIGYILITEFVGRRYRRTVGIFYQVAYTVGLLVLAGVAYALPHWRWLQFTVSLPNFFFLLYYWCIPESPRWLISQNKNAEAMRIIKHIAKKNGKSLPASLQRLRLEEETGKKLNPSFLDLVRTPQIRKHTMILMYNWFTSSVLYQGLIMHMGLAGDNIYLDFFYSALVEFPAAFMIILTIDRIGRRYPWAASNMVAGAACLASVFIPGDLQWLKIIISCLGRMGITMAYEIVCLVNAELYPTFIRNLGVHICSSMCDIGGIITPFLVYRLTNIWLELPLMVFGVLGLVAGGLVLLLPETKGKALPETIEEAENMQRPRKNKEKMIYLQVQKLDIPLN

hOCT3 = biological target: T5, hOCT3 (Homo sapiens, UniProt O75751); assay: Inhibition of hOCT3-mediated substrate uptake in transfected HEK293 cells; format: in vitro ADME; details: for In vivo DDI study recommendation, hOCT3: FDA-recommended criteria
T5 construct: expressed in transfected cells
T5 sequence (O75751 1-556): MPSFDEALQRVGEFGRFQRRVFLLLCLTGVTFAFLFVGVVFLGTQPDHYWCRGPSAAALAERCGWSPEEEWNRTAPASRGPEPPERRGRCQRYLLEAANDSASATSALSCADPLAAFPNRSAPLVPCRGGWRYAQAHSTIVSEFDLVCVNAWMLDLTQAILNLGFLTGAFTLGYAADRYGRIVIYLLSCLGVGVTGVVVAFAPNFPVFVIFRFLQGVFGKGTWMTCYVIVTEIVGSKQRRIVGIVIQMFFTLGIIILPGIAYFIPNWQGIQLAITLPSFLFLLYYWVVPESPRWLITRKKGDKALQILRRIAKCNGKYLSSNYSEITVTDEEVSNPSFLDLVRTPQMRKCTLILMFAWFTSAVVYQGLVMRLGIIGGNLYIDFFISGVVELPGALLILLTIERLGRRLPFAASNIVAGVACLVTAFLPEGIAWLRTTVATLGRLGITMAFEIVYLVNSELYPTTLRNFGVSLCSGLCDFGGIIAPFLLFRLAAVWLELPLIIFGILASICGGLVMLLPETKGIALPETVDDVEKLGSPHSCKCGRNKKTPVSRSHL

hOCT1 [2] = biological target: T2, hOCT1; set-up: method as in PMID 32487736; details: substrate mIBG; HEK293; read-out: IC50, hOCT1-mediated mIBG uptake; cited from earlier work

T1 sequence (Q86VL8 1-566 isoform Q86VL8-3): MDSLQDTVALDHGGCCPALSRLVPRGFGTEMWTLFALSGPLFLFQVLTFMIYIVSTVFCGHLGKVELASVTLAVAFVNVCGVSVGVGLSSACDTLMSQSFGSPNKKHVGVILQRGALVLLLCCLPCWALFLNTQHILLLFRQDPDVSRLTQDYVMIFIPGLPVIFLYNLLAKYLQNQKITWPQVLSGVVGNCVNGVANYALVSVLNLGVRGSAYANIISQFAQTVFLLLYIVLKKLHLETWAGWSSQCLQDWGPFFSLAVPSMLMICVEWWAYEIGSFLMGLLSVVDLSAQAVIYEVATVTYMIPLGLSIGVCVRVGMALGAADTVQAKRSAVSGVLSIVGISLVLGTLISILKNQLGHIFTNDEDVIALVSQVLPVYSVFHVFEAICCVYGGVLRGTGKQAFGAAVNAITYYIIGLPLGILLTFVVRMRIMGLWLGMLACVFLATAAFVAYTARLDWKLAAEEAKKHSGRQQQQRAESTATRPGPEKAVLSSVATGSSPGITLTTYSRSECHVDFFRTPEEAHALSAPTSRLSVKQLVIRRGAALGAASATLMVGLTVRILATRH

- substrate dependency, hMATE2-K: more potent with metformin than with MPP+ (hMATE2-K; IC50 ratio MPP+/metformin): ~12 fold
- substrate dependency, hMATE2-K: more potent with metformin than with mIBG (hMATE2-K; IC50 ratio mIBG/metformin): approximately 5 fold
- In vivo DDI study recommendation, hMATE2-K (hMATE2-K; substrate MPP+): No
- In vivo DDI study recommendation, hMATE2-K (hMATE2-K; substrate mIBG): No
- In vivo DDI study recommendation, hMATE2-K (hMATE2-K; substrate metformin): No
- substrate dependency, hOCT1: more potent with metformin than with MPP+ (hOCT1 [1]; IC50 ratio MPP+/metformin): ~21 fold
- substrate dependency, hOCT1: more potent with metformin than with mIBG (hOCT1 [1]; IC50 ratio mIBG/metformin): approximately 8 fold
- IC50 (hOCT1 [1]; substrate 8.9 µM [14C]metformin, HEK293, 2 min, 37 °C, mean ± SD, read-out: IC50, hOCT1-mediated metformin uptake): 4.98 ± 0.15 µM
- In vivo DDI study recommendation, hOCT1 (hOCT1 [1]; substrate MPP+): No
- In vivo DDI study recommendation, hOCT1 (hOCT1 [1]; substrate mIBG): No
- In vivo DDI study recommendation, hOCT1 (hOCT1 [1]; substrate metformin): No
- In vivo DDI study recommendation, hMATE1 (hMATE1; substrate MPP+): No
- In vivo DDI study recommendation, hMATE1 (hMATE1; substrate mIBG): No
- In vivo DDI study recommendation, hMATE1 (hMATE1; substrate metformin): No
- substrate dependency, hOCT2: more potent with metformin than with MPP+ (hOCT2; IC50 ratio MPP+/metformin): ~16 fold
- substrate dependency, hOCT2: more potent with metformin than with mIBG (hOCT2; IC50 ratio mIBG/metformin): approximately 2 fold
- In vivo DDI study recommendation, hOCT2 (hOCT2; substrate MPP+): No
- In vivo DDI study recommendation, hOCT2 (hOCT2; substrate mIBG): No
- In vivo DDI study recommendation, hOCT2 (hOCT2; substrate metformin): No
- substrate dependency, hOCT3: differences in IC50 values across substrates (hOCT3; metformin, mIBG, MPP+): ≤ 5 fold
- In vivo DDI study recommendation, hOCT3 (hOCT3; substrate MPP+): No
- In vivo DDI study recommendation, hOCT3 (hOCT3; substrate mIBG): No
- In vivo DDI study recommendation, hOCT3 (hOCT3; substrate metformin): No
Structure (SMILES): C[C@@H](Oc1cc(-c2cnn(C3CCNCC3)c2)cnc1N)c1c(Cl)ccc(F)c1Cl [Crizotinib]
- IC50 (hOCT1 [2]): 40.3 ± 5.5 µM
